Results taken from patent publication US20090018134A1, “Compounds - 945” (AstraZeneca AB, priority 2007, published 2009).

Biological target: T1, mTOR (Homo sapiens, UniProt P42345)
T1 construct: FLAG; made in house
Assay: In Vitro mTOR Kinase Assay (Echo), Test (a)(ii)
Format: biochemical
Conditions: table of enzyme assay Test (a)(ii); read-out: Test (a)(ii) IC50
How it was run: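 AlphaScreen read-out: biotinylated substrate phosphorylation was detected with anti-p70 S6K (T389) 1A5 antibody, Protein A acceptor and streptavidin donor beads after overnight dark incubation at room temperature. Enzyme was FLAG-mTOR 1362-2549 from stable HEK293 cells.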

T1 sequence (P42345 1362-2549): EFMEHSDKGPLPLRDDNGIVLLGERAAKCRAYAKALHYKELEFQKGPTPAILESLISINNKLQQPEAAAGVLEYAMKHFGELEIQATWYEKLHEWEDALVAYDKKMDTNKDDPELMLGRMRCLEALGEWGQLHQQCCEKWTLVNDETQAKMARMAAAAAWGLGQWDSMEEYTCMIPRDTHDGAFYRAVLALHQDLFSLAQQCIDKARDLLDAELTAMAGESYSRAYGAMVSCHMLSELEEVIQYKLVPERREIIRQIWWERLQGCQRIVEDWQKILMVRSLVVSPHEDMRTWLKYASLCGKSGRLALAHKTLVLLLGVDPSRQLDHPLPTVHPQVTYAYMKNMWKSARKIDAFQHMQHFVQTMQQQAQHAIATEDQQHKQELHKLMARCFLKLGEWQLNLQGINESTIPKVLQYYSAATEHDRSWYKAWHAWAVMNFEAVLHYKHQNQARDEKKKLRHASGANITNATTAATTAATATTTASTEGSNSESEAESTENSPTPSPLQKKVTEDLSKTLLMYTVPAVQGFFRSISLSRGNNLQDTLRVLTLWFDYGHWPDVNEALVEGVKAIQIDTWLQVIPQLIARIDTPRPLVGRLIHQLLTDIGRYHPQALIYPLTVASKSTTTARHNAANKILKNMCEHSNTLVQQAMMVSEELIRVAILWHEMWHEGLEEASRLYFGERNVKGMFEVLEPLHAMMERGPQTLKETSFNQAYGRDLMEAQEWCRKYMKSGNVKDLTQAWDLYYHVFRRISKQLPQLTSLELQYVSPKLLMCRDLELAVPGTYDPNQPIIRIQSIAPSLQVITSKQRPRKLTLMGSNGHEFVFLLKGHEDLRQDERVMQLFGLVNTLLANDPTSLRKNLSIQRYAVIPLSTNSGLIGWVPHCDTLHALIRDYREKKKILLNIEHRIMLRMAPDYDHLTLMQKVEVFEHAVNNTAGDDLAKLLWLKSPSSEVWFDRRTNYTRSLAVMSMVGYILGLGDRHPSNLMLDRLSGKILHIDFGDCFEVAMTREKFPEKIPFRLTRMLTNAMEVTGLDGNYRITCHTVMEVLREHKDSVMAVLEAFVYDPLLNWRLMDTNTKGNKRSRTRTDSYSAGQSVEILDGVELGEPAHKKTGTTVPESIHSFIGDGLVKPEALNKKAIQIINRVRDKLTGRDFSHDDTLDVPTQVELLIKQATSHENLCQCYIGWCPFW

Row | IC50 | Structure (SMILES)
1 | 1.79 nM | C[C@H]1COCCN1c1cc(C2(S(=O)(=O)c3cncc(F)c3)CC2)nc(-c2ccc(NC(=O)NC3CC3)cc2)n1 [Example 17c, 3-cyclopropyl-1-[4-[4-[1-(5-fluoropyridin-3-yl)sulfonylcyclopropyl]-6-[(3S)-3-methylmorpholin-4-yl]pyrimidin-2-yl]phenyl]urea]
2 | 1.35 nM | C[C@H]1COCCN1c1cc(C2(S(=O)(=O)C(C)(C)C)CC2)nc(-c2ccc(NC(=O)NC3CC3)cc2)n1 [Example 18, 1-[4-[4-(1-tert-Butylsulfonylcyclopropyl)-6-[(3S)-3-methylmorpholin-4-yl]pyrimidin-2-yl]phenyl]-3-cyclopropylurea]
3 | 14.7 nM | C[C@H]1COCCN1c1cc(C2(S(=O)(=O)C(C)(C)C)CC2)nc(-c2ccc(NC(=O)Nc3ccccn3)cc2)n1 [Example 18b, 1-[4-[4-(1-tert-butylsulfonylcyclopropyl)-6-[(3S)-3-methylmorpholin-4-yl]pyrimidin-2-yl]phenyl]-3-pyridin-2-ylurea]
4 | 32 nM | CC(C)CNC(=O)Nc1ccc(-c2nc(N3CCOC[C@@H]3C)cc(C3(S(=O)(=O)C(C)(C)C)CC3)n2)cc1 [Example 18c, 1-[4-[4-(1-tert-butylsulfonylcyclopropyl)-6-[(3S)-3-methylmorpholin-4-yl]pyrimidin-2-yl]phenyl]-3-(2-methylpropyl)urea]
5 | 15.1 nM | CC(C)NC(=O)Nc1ccc(-c2nc(N3CCOC[C@@H]3C)cc(C3(S(=O)(=O)C(C)(C)C)CC3)n2)cc1 [Example 18d, 1-[4-[4-(1-tert-butylsulfonylcyclopropyl)-6-[(3S)-3-methylmorpholin-4-yl]pyrimidin-2-yl]phenyl]-3-propan-2-ylurea]
6 | 0.654 nM | CCNC(=O)Nc1ccc(-c2nc(N3CCOC[C@@H]3C)cc(C3(S(=O)(=O)C(C)(C)C)CC3)n2)cc1 [Example 18e, 1-[4-[4-(1-tert-butylsulfonylcyclopropyl)-6-[(3S)-3-methylmorpholin-4-yl]pyrimidin-2-yl]phenyl]-3-ethylurea]
7 | 120 nM | C[C@H]1COCCN1c1cc(C2(S(=O)(=O)C(C)(C)C)CC2)nc(-c2ccc(NC(=O)NCCN(C)C)cc2)n1 [Example 18f, 1-[4-[4-(1-tert-butylsulfonylcyclopropyl)-6-[(3S)-3-methylmorpholin-4-yl]pyrimidin-2-yl]phenyl]-3-(2-dimethylaminoethyl)urea]
8 | 1.23 nM | C[C@H]1COCCN1c1cc(C2(S(=O)(=O)C(C)(C)C)CC2)nc(-c2ccc(NC(=O)NCCO)cc2)n1 [Example 18g, 1-[4-[4-(1-tert-butylsulfonylcyclopropyl)-6-[(3S)-3-methylmorpholin-4-yl]pyrimidin-2-yl]phenyl]-3-(2-hydroxyethyl)urea]
9 | 6.64 nM | CCCNC(=O)Nc1ccc(-c2nc(N3CCOC[C@@H]3C)cc(C3(S(=O)(=O)C(C)(C)C)CC3)n2)cc1 [Example 18h, 1-[4-[4-(1-tert-butylsulfonylcyclopropyl)-6-[(3S)-3-methylmorpholin-4-yl]pyrimidin-2-yl]phenyl]-3-propylurea]
10 | 5.55 nM | CNC(=O)Nc1ccc(-c2nc(N3CCOC[C@@H]3C)cc(C3(S(=O)(=O)C(C)(C)C)CC3)n2)cc1 [Example 18i, 1-[4-[4-(1-tert-butylsulfonylcyclopropyl)-6-[(3S)-3-methylmorpholin-4-yl]pyrimidin-2-yl]phenyl]-3-methylurea]
11 | 30.3 nM | C[C@H]1COCCN1c1cc(C2(S(=O)(=O)C(C)(C)C)CC2)nc(-c2ccc(NC(=O)Nc3ccc(C(F)(F)F)cc3)cc2)n1 [Example 18j, 1-[4-[4-(1-tert-butylsulfonylcyclopropyl)-6-[(3S)-3-methylmorpholin-4-yl]pyrimidin-2-yl]phenyl]-3-[4-(trifluoromethyl)phenyl]urea]
12 | 11.3 nM | C[C@H]1COCCN1c1cc(C2(S(=O)(=O)C(C)(C)C)CC2)nc(-c2ccc(NC(=O)NC(C)(C)CO)cc2)n1 [Example 18k, 1-[4-[4-(1-tert-butylsulfonylcyclopropyl)-6-[(3S)-3-methylmorpholin-4-yl]pyrimidin-2-yl]phenyl]-3-(1-hydroxy-2-methylpropan-2-yl)urea]
